Measured values: patent US10144952B2, “Stabilization and isolation of extracellular nucleic acids” (QIAGEN GmbH, priority 2013, dated 2018)
Structures can show the parent of a compound that is named as a salt. Where a SMILES comes first, the peptide text is derived from it. The star is where a group is joined. Cbz = O=C(OCc1ccccc1)*; CH2F = FC*

Tests used:
[1] = system: Bid-induced cyctochrome c release from HeLa cell mitochondria; conditions: at 5 μM; cited from earlier work
calpain II = target: T1, calpain II (Homo sapiens, UniProt P17655); conditions: irreversible inhibitor; cited from earlier work
T1 sequence (P17655 1-700): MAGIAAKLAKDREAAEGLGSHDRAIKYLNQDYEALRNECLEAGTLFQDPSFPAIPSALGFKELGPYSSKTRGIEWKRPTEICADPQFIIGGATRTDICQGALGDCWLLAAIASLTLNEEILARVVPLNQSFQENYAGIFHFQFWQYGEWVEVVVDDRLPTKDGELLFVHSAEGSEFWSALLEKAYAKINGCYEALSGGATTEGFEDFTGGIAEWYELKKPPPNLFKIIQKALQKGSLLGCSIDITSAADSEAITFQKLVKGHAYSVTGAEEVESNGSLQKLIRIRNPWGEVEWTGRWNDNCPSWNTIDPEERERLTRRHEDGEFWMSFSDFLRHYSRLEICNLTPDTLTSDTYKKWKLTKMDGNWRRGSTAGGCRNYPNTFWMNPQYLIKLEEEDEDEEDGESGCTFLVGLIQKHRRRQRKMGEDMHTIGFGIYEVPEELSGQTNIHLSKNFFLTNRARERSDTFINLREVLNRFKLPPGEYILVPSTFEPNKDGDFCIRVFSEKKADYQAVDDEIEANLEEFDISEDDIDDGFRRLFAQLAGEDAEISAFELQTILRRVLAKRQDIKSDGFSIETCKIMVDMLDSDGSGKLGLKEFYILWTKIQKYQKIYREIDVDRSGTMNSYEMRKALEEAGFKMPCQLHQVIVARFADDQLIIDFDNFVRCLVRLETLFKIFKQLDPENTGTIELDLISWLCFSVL
T1 sequence (P04632 1-268 partner): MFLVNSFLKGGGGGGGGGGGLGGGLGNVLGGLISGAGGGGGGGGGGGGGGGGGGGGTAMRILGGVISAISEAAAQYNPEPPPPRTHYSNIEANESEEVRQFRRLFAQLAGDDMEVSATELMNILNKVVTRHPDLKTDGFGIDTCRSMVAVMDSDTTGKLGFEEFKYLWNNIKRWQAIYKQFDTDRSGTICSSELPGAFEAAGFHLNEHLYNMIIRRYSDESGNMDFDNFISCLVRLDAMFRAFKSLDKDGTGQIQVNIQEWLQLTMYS

cathepsin L = cathepsin L (Homo sapiens, UniProt P07711); conditions: cited from earlier work
Chain of cathepsin L (P07711 114-333, species assumed): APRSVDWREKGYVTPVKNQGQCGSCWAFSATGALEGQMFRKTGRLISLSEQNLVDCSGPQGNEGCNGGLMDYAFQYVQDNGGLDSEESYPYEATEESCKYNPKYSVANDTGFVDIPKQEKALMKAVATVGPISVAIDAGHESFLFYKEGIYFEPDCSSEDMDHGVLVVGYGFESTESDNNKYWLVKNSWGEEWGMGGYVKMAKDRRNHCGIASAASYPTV

[2] = system: transcriptional activation of COX-2; conditions: cited from earlier work
[3] = system: etoposide-induced cortical neuron death; conditions: cited from earlier work
[4] = cited from earlier work; for t1/2: buffer
[5] = system: release of genomic DNA from white blood cells in whole blood (18S ribosomal DNA 66 bp and 500 bp amplicons); assay: 18S rDNA qPCR: increase of DNA in plasma of stored whole blood; format: cell-based, human; conditions: for increase of 18S DNA from day 0: Example 5, 2.1, 20 μM, within 7 days of storage at RT; for released DNA / stabilization capability: 3 and 6 days at room temperature
Excerpt: Detection of ribosomal 18S DNA by quantitative real-time PCR, makes it possible to calculate the x-fold increase of DNA from day 0 to day 3 or 7 (calculation: division of day 3 (or 7) copies by day 0 copies).

[6] = system: ladder-like pattern of genomic DNA fragments (apoptosis) in whole blood; assay: chip gel electrophoresis of circulating cell-free DNA; format: cell-based; conditions: 20 μM in whole blood; day 3 and day 7
Procedure: 1.3.1 Measurement of the blood cell stability/DNA release by the determination of DNA size distribution using a chip gel electrophoresis (2100 Bioanalyzer; Agilent Technologies; Inc., USA) according to manufacturer's instruction (see handbook Agilent DNA 7500 and DNA 12000 Kit Guide), but 1.5 μl instead of 1 μl sample were transferred to the wells.
Each tested caspase inhibitor was added to whole blood samples (20 μM end concentration in 10 ml blood; blood was collected into Vacutainer K2E Tubes; BD). The whole blood sample was processed as described in section 1 (plasma preparation and nucleic acid isolation).
The eluted circulating cell-free DNA was separated by size using chip gel electrophoresis (for details on the method see above). […] The DMSO control and the K2E blood (not treated according to the teachings of the present invention) show the same ladder-like pattern of bands. This pattern occurs in samples where apoptosis takes place. During apoptosis, endonucleases degrade genomic DNA at inter-nucleosomal linker regions and produce DNA fragments of circa 180 bp or multiples of 180 bp. Thus, apoptosis occurs in samples which show a clear ladder-like pattern. Furthermore, the strength (darkness) of the pattern is decisive. The darker the bands, the more genomic DNA was released from the cells and thus contaminates the extracellular nucleic acid population.

cells = conditions: cited from earlier work
[7] = system: myocardial infarct size during reperfusion; conditions: cited from earlier work

Compound: OC(CN1CCNCC1)Cn1c2ccc(Br)cc2c2cc(Br)ccc21 (racemic) [Bax Channel Blocker, (±)-1-(3,6-Dibromocarbazol-9-yl)-3-piperazin-1-yl-propan-2-ol,bis TFA]
- inhibition of Bid-induced cytochrome c release [1]: cyctochrome c release from HeLa cell mitochondria (~80%

Compound: CC(C)C[C@H](NC(=O)OCc1ccccc1)C(=O)N[C@@H](CC(C)C)C(=O)N[C@@H](Cc1ccc(O)cc1)C(=O)CF [Calpain Inhibitor IV, Z-Leu-Leu-Tyr-CH2F] (HELM PEPTIDE1{[O=C(OCc1ccccc1)[*:2]].L.L.Y.[FC[*:1]]}$$$$V2.0)
- k2 calpain II (calpain II): 28,900 M-1s-1). Also acts as an inhibitor of cathepsin L (k2 =
- k2 cathepsin L (cathepsin L): 680,000 M-1s-1).

Compound: O=c1c(O)c(-c2ccc(O)cc2)oc2cc(O)cc(O)c12 [Kaempferol]
- IC50 [2]: < 15 µM

Compound: O=[N+]([O-])c1ccc(-c2cn3c4c(sc3n2)CCCC4)cc1 [Pifithrin-α, p-Nitro, Cyclic]
- fold higher potency than Pifithrin-α [3]: A cell-permeable p53 inhibitor that exhibits 10-fold higher potency
- t1/2 [4]: 6 h
- longer half-life than Pifithrin-α ([4]; neuron culture medium at 37° C.): 50%

Compound: N=c1sc2c(n1CC(=O)c1ccc([N+](=O)[O-])cc1)CCCC2 [Pifithrin-α, p-Nitro]
- t1/2 [4]: biological systems (t1/2 = 8h in neuron culture medium at 37° C.).

Compound: CC(C)C(NC(=O)c1ccc2ccccc2n1)C(=O)NC(CC(=O)O)C(=O)COc1c(F)cccc1F (stereo not drawn) [Q-VD-OPh, Quinoline-Val-Asp-CH2-OPH]
- increase of 18S DNA from day 0 [5]: reduced increase of DNA
- ladder-like pattern of cell-free DNA [6]: significantly reduced ladder-like patterns
- toxicity to cells (cells): not toxic to cells even at extremely high concentrations

Compound: COC(=O)C[C@H](NC(=O)[C@H](C)NC(=O)[C@@H](NC(=O)OCc1ccccc1)C(C)C)C(=O)CF [Z-Val-Ala-Asp(OMe)-FMK] (Cbz-Val-Ala-Asp(OMe)-CH2F)
- increase of 18S DNA from day 0 [5]: more prominent on day 7
- ladder-like pattern of cell-free DNA [6]: reduced ladder-like pattern

Compound: CCCC(N)=O [butanamide]
- released DNA / stabilization capability ([5]; Example 2, 2.5, 3 or 3.5% butanamide or 5% DMAA with 1 μM caspase inhibitor and EDTA): at least comparable stabilization capabilities to DMAA
- released DNA / stabilization capability ([5]; Example 3, butanamide 0.5-2% with DMPA 2.5-1%, 1 μM caspase inhibitor, EDTA): comparable stabilization capabilities
- increase in 18S rDNA ([5]; Example 4, 0.5, 1.5 and 2.5% (w/v) butanamide with 1 μM caspase inhibitor and EDTA): significantly reduced increase in 18S rDNA

Compound: Ac-Leu-Glu-His-Asp-CMK (LEHD; HELM PEPTIDE1{[ac].L.E.H.D.[ClC[*:1]]}$$$$V2.0; SMILES CC(=O)N[C@@H](CC(C)C)C(=O)N[C@@H](CCC(=O)O)C(=O)N[C@@H](Cc1c[nH]cn1)C(=O)N[C@@H](CC(=O)O)C(=O)CCl) [Caspase-9 Inhibitor III]
- concentration reported to reduce myocardial infarct size [7]: myocardial infarct size during reperfusion (~70 nM).
